Measured values taken from patent publication US20250171399A1, “PYRROLIDINE COMPOUNDS” (Eli Lilly and Company, priority 2022, published 2025).
Where a name gives a salt, the structure may show the parent alone.

Target: T1, human Apo(a) protein (Homo sapiens, UniProt P08519)
T1 sequence (P08519 1053-1693 limits assumed): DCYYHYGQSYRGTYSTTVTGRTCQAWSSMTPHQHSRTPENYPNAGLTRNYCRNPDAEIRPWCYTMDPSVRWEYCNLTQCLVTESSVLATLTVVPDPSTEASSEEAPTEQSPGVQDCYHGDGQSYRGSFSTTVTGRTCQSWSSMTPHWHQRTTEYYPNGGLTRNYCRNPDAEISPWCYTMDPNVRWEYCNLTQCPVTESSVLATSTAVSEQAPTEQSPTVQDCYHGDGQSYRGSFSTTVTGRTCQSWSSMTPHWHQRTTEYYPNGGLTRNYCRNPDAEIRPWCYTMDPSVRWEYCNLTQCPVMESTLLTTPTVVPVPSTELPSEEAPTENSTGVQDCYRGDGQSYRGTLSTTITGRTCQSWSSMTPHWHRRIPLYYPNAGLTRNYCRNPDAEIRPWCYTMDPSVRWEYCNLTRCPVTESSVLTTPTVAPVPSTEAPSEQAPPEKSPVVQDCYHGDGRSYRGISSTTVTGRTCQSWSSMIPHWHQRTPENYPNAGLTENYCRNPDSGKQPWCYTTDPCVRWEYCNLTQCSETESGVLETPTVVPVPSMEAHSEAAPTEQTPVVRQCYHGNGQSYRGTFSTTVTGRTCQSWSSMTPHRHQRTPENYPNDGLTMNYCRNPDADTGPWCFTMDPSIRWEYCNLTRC
Assay: In vitro Apo(a) binding assay (competitive SPA radioligand binding)
Settings: competitive binding vs tritium-labeled radioligand 0.52 nM; human Apo(a) containing 17 Kringle repeats; 60 min at RT
Procedure: The in vitro binding affinity of compounds to the intended target human Apo(a) protein were tested in a competitive binding assay. Human Apo(a) protein containing 17 Kringle repeats was affinity purified from conditioned media of transiently transfected HEK-293F cells. All reagents were prepared in assay buffer containing 50 mM Tris-HCl pH 7.4, 0.1% BSA. The binding assay was conducted by adding to each well of a clear-bottom plate 50 μL each of (1) test compound in dilution series (final concentration 0.32˜10000 nM), (2) Apo(a) protein (6 ng/well), (3) re-suspended Wheat Germ Agglutinin Polyvinyltoluene SPA beads (20 mg/mL), and (4) the radioligand, tritium-labeled (2S)-3-[3-[2-oxo-3-[3-(tritritiomethoxy)phenyl]imidazolidin-1-yl]phenyl]-2-[(3R)-pyrrolidin-3-yl]propanoic acid hydrochloride (prepared essentially as described in WO 2020/247429; final concentration 0.52 nM). Plates were incubated for 60 min at RT and counted on TRILUX LSC. Non-specific binding, defined as binding in the presence of […] cold (i.e. non-radiolabeled) ligand: (2S)-3-[3-[2-oxo-3-[3-(methoxy)phenyl]imidazolidin-1-yl]phenyl]-2-[(3R)-pyrrolidin-3-yl]propanoic acid hydrochloride (prepared essentially as described in WO 2020/247429) was subtracted to determine specific binding. Data were analyzed by fitting to a standard single site binding model and the IC50 for the Example test compound was determined. […]

SMILES: COc1cc(F)cc(CNc2cccc(C[C@H](C(=O)O)[C@H]3CCNC3)c2)c1 [Example 6, (2S)-3-[3-[[(3-Fluoro-5-methoxy-phenyl)methyl]amino]phenyl]-2-[(3R)-pyrrolidin-3-yl]propanoic acid;hydrochloride]
- IC50: 4.68 nM
